Measurements reported in patent US11033569B2, “Compounds,Compositions, and methods for the treatment of disease” (Sperovie Biosciences, Inc., priority 2016, dated 2021).

Columns and labels:
[1] = test system: CD8+ T cells, CD4+ T cells, and MDSCs; test: Flow cytometry of immune cells in spleen, lymph nodes and blood; type: in vivo; conditions: lymph nodes and blood on day 19, compared with vehicle
[2] = Immunohistochemistry on tissues from treated mice; type: in vivo
[3] = test system: CT26 colon cancer; test: Syngeneic CT26 colon cancer mouse model; type: in vivo
[4] = test system: THP1 cells and PBMCs; test: Gene expression of ISGs and PRRs in THP1 and PBMCs (real time PCR); type: cell-based; conditions: 5 uM, Lipofectamine LTX, 20 h
Method: (§1) After incubation for 20 h, RNA was extracted and gene expression of different Interferon Stimulated Genes (ISGs) and various Pattern Recognition Receptors (PRRs) was evaluated by real time PCR. Fold Induction was calculated by ΔΔct method.
as §1

[5] = test system: Tumor cells; test: Tumor cell growth inhibition (DAPI imaging, ImageXpress); type: cell-based; conditions: once daily for 3 days, no lipofectamine
Method: Tumor cells in 96-well plate were treated once daily with Cmd 1 (no lipofectamine) or recombinant IFN (U-IFN) for 3 days. Cells were fixed with 1% paraformaldehyde and stained with DAPI. Cells were automatically imaged on ImageXpress and total number of survival cells were analyzed using MetaXpress software. Results are shown as total number of cells per group or % reduction calculated by normalizing to DMSO treated cells.

[6] = molecular target: T1, STING (Homo sapiens, UniProt Q86WV6); test: STING binding / type I IFN signaling (ISRE-luciferase); type: cell-based; conditions: similar to 2′,3′-cGAMP
T1 construct: host or cells: SZ14 HEK293 cells stably expressing ISG54 ISRE-luc reporter
T1 sequence (Q86WV6 whole entry): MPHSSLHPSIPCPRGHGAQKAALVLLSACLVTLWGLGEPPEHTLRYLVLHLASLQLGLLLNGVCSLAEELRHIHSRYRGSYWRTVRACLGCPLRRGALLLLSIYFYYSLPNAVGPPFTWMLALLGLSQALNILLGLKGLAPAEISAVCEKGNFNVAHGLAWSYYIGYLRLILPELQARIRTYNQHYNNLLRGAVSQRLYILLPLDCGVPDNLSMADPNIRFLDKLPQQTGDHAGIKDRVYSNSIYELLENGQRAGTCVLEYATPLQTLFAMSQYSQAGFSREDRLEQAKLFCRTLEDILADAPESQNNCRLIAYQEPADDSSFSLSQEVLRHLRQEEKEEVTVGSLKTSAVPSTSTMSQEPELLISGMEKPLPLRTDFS
Method: SZ14 HEK293 cells stably expressing the ISG54 ISRE-luc reporter gene were treated with compound exemplary compounds Cmd 1, 2′ 3-cGAMP (natural STING ligand), or DMSO in the presence of digitonin for 5-6 hrs. ISRE-luciferase activity was determined and normalized to DMSO treated cells (mean±standard deviation of triplicate wells per stimulant).

[7] = test system: mouse macrophages; test: Type I IFN signaling in mouse macrophages; type: cell-based
Method: Activity of secreted luciferase in cell culture supernatant was measured using Invivogen Quanti-luc. Data are shown as fold induction over DMSO treated cells (mean±standard deviation of triplicate wells per stimulant).

[8] = molecular target: STING-HAQ polymorphic variant (Homo sapiens, UniProt Q86WV6, G230A/H232R/R293Q/R71H); test: Activation of STING-HAQ polymorphic variant; type: cell-based; conditions: major STING-HAQ polymorphic variant in humans
STING-HAQ polymorphic variant, sequence (Q86WV6 whole entry R71H/G230A/H232R/R293Q): as the sequence (Q86WV6 whole entry) above, with R71H, G230A, H232R, R293Q counted along it

[9] = test system: mouse A20 B cell lymphoma tumor cells; test: Inhibition of mouse A20 B cell lymphoma tumor cells; conditions: FIGS. 48A-48D

SMILES: CCCCCCCCCCOc1ccc(C(=O)Oc2ccc(CSP3(=O)OC[C@H]4O[C@@H](n5cnc6c(N)ncnc65)[C@H](F)[C@@H]4OP(=O)(O)OC[C@H]4O[C@@H](n5ccc(=O)[nH]c5=O)[C@H](F)[C@@H]4O3)cc2)cc1.N (stereo partly shown) [Cmd 1]
- induction of CD8+ T cells, CD4+ T cells, and MDSCs [1]: increase in CD8+ T cells, CD4+ T cells, and MDSCs
- correlation of anti-tumor activity with immune response [2]: correlates with the induction of the innate and adaptive immune response
- abscopal antitumoral activity, tumor volume left and right flank ([3]; administered intratumorally, 13 days post initiation treatment, vs vehicle): considerable tumor growth inhibition
- survival rate ([3]; combination therapy with an anti-CTLA4 antibody): significantly improve the survival rate
- tumor growth ([3]; doses 10 μg, 30 μg, and 100 μg, vs vehicle): considerable tumor growth inhibition at all three doses
- tumor growth ([3]; intratumoral administration, vs vehicle (FIG. 79)): considerable tumor growth inhibition
- tumor growth ([3]; intratumoral administration, vs vehicle, vehicle and Ethanol (FIG. 80)): considerable tumor growth inhibition
- survival rate ([3]; monotherapy): significantly improve the survival rate
- tumor growth ([3]; syngeneic CT26 colon cancer model (FIG. 62)): highly effective in inhibiting tumor growth
- induction of ISG and PRR-associated genes, THP1 compared to PBMCs [4]: selective and enhanced induction of ISG and PRR-associated genes
- tumor cell growth [5]: Inhibits Tumor Cell Growth
- STING binding and type 1 IFN signaling [6]: binds to STING to activate type 1 IFN signaling
- activity relative to natural STING ligand 3′,3′-cGAMP ([7]; mouse macrophages (FIG. 36B)): more active
- activation of type 1 IFN signaling ([7]; mouse macrophages, similar to 2′,3′-cGAMP): highly active
- activation of STING-HAQ variant [8]: capable of activating
- inhibition of tumor cells [9]: inhibits mouse A20 B cell lymphoma tumor cells
